Counter-ions that a name gives are not always drawn.
Tests used:
[1] = system: NCI-H146 cells (human small-cell lung cancer cell lines); experiment: Cell-growth inhibition test: NCI-H146 cells; type: cell-based; settings: Homo sapiens, NCI-H146, read-out: Cell-Growth Inhibition Test: NCI-H146 Cells IC50 (nM)
Protocol: Under the following conditions, an in vitro cell-growth inhibition test was performed with respect to HEL cells (human acute myelocytic leukemia cell lines), NCI-H1417 cells (human small-cell lung cancer cell lines), and NCI-H146 cells (human small-cell lung cancer cell lines).
The cells with the compound of the present invention or with dimethylsulfoxide alone were cultured at 37° C. in a 5% carbon-dioxide-containing incubator for 5 days (HEL cells) or 10 days (NCI-H1417 cells and NCI-H146 cells). After culture, the plate was allowed to stand at room temperature for 30 minutes, and 100 μL of the supernatant was removed from each well to leave 100 μL of the cell culture solution. To each well containing the remaining 100 μL of the cell culture solution, the same amount of CellTiter-Glo 2.0 Assay (Promega, Cat #: G9242) was added. The microplate was shaken with a plate mixer for 1 minute and then allowed to stand in a dark place for 10 minutes. Thereafter, the luminescence intensity of viable cells in each well was measured using a microplate reader (PerkinElmer, EnSpire). […] Cell growth rate (%)=T/C×100 T: The luminescence intensity in a well to which the compound of the present invention was added (count per second) C: The luminescence intensity in a well to which dimethylsulfoxide alone was added (count per second)

[2] = system: HEL cells (human acute myelocytic leukemia cell lines); experiment: cells; settings: read-out: Cell-Growth Inhibition Test: HEL Cells IC50 (nM);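 further: viable cell count by CellTiter-Glo 2.0 luminescence after 5 days of culture at 37 °C, growth expressed relative to DMSO-only wells as 100%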
[3] = system: NCI-H1417 cells (human small-cell lung cancer cell lines); experiment: cells; settings: NCI-H1417, read-out: Cell-Growth Inhibition Test: NCI-H1417 Cells IC50 (nM);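 further: growth of NCI-H1417 cells over 10 days at 37 °C, read as viable-cell luminescence by CellTiter-Glo 2.0, expressed as % of DMSO-only control wells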

SMILES | IC50 [1] [nM] | IC50 [2] [nM] | IC50 [3] [nM]
Cn1ccc2cc(-c3ccc(C(=O)N4[C@@H]5CC[C@H]4C[C@H](N)C5)cc3-c3ccc(C#N)c(F)c3)ccc21 [Example 18] | 8.13 | 3.55 | 4.73
COCCc1ccc(-c2ccc(C(=O)N3[C@@H]4CC[C@H]3C[C@@H](N)C4)cc2-c2ccc(C#N)c(F)c2)c(F)c1 [Example 22] | 15 | 3.51 | 8.2
Cn1ccc2cc(-c3ccc(C(=O)N4[C@@H]5CC[C@H]4C[C@H](N)C5)cc3-c3ccc(C#N)c(F)c3)c(F)cc21 [Example 23] | 9.33 | 0.73 | 0.99
Cn1ncc2cc(-c3ccc(C(=O)N4[C@@H]5CC[C@H]4C[C@H](N)C5)cc3-c3ccc(C#N)c(F)c3)c(F)cc21 [Example 24] | 4.04 | 3.56 | 0.97
CC(C)(O)Cc1ccc(-c2ccc(C(=O)N3[C@@H]4CC[C@H]3C[C@@H](N)C4)cc2-c2ccc(C#N)c(F)c2)c(F)c1 [Example 41] | 9.76 | 4.98 | 6.12
Cn1ccc2cc(-c3ccc(C(=O)N4[C@@H]5CC[C@H]4C[C@@H](N)C5)cc3-c3ccc(C#N)c(F)c3)c(F)cc21 [Example 123] | 1.39 | 1.39 | 3.57
CC(C)(O)Cn1nnc2cc(-c3ccc(C(=O)N4[C@@H]5CC[C@H]4C[C@@H](N)C5)cc3-c3ccc(C#N)c(F)c3)c(F)c(F)c21 [Example 161] | 1.09 | 6.88 | 2.49
Cc1nn(CC(C)(C)O)c2cc(F)c(-c3ccc(C(=O)N4[C@@H]5CC[C@H]4C[C@@H](N)C5)cc3-c3ccc(C#N)c(F)c3)cc12 [Example 181, 5′-((3-endo)-3-amino-8-azabicyclo[3.2.1]octane-8-carbonyl)-3-fluoro-2′-(6-fluoro-1-(2-hydroxy-2-methylpropyl)-3-methyl-1H-indazol-5-yl)-[1,1′-biphenyl]-4-carbonitrile] | 2.93 | 9.06 | 4.6
CC(C)(O)Cn1ccc2cc(-c3ccc(C(=O)N4[C@@H]5CC[C@H]4C[C@@H](N)C5)cc3-c3ccc(C#N)c(F)c3)c(F)c(F)c21 [Example 183, 5′-((3-endo)-3-amino-8-azabicyclo[3.2.1]octane-8-carbonyl)-2′-(6,7-difluoro-1-(2-hydroxy-2-methylpropyl)-1H-indol-5-yl)-3-fluoro-[1,1′-biphenyl]-4-carbonitrile] | 0.25 | 0.54 | 1.01
COc1c(F)c(-c2ccc(C(=O)N3[C@@H]4CC[C@H]3C[C@@H](N)C4)cc2-c2ccc(C#N)c(F)c2)cc2cnn(CC(C)(C)O)c12 [Example 186, 5′-((3-endo)-3-amino-8-azabicyclo[3.2.1]octane-8-carbonyl)-3-fluoro-2′-(6-fluoro-1-(2-hydroxy-2-methylpropyl)-7-methoxy-1H-indazol-5-yl)-[1,1′-biphenyl]-4-carbonitrile] | 3.21 | 5.3 | 5.95
CC(C)(O)Cn1ncc2cc(-c3ccc(C(=O)N4[C@@H]5CC[C@H]4C[C@@H](N)C5)cc3-c3ccc(C#N)c(F)c3)c(F)c(F)c21 [Example 188, 5′-((3-endo)-3-amino-8-azabicyclo[3.2.1]octane-8-carbonyl)-2′-(6,7-difluoro-1-(2-hydroxy-2-methylpropyl)-1H-indazol-5-yl)-3-fluoro-[1,1′-biphenyl]-4-carbonitrile] | 1.58 | 1.95 | 1.96
CC(C)(O)CCn1ncc2cc(-c3ccc(C(=O)N4[C@@H]5CC[C@H]4C[C@@H](N)C5)cc3-c3ccc(C#N)c(F)c3)c(F)cc21 [Example 194, 5′-((3-endo)-3-amino-8-azabicyclo[3.2.1]octane-8-carbonyl)-3-fluoro-2′-(6-fluoro-1-(3-hydroxy-3-methylbutyl)-1H-indazol-5-yl)-[1,1′-biphenyl]-4-carbonitrile] | 11.3 | 15.5 | 5.63
Cc1noc2cc(-c3ccc(C(=O)N4C5CCC4C(N)C5)cc3-c3ccc(C#N)c(F)c3)c(F)cc12 [Example 202, 5′-((1S,2S,4R)-rel-2-amino-7-azabicyclo[2.2.1]heptane-7-carbonyl)-3-fluoro-2′-(5-fluoro-3-methylbenzo[d]isoxazol-6-yl)-[1,1′-biphenyl]-4-carbonitrile-isomer-X] | 0.73 | 0.24 | 0.62
CCC(O)(CC)Cn1ncc2cc(-c3ccc(C(=O)N4[C@@H]5CC[C@H]4C[C@@H](N)C5)cc3-c3ccc(C#N)c(F)c3)c(F)cc21 [Example 205, 5′-((3-endo)-3-amino-8-azabicyclo[3.2.1]octane-8-carbonyl)-2′-(1-(2-ethyl-2-hydroxybutyl)-6-fluoro-1H-indazol-5-yl)-3-fluoro-[1,1′-biphenyl]-4-carbonitrile] | 15.1 | 4.95 | 6.25
CCC(O)(CC)Cn1ncc2cc(-c3ccc(C(=O)N4C5CCC4C(N)C5)cc3-c3ccc(C#N)c(F)c3)c(F)cc21 [Example 206, 5′-((1S,2S,4R)-rel-2-amino-7-azabicyclo[2.2.1]heptane-7-carbonyl)-2′-(1-(2-ethyl-2-hydroxybutyl)-6-fluoro-1H-indazol-5-yl)-3-fluoro-[1,1′-biphenyl]-4-carbonitrile-isomer-X] | 1.09 | 0.4 | 0.95
CC(C)(O)Cn1nnc2cc(-c3ccc(C(=O)N4C5CCC4C(N)C5)cc3-c3ccc(C#N)c(F)c3)c(F)c(Cl)c21 [Example 209, 5′-((1S,2S,4R)-rel-2-amino-7-azabicyclo[2.2.1]heptane-7-carbonyl)-2′-(7-chloro-6-fluoro-1-(2-hydroxy-2-methylpropyl)-1H-benzo[d][1,2,3]triazol-5-yl)-3-fluoro-[1,1′-biphenyl]-4-carbonitrile-isomer-X] | 0.22 | 0.24 | 0.18
CC(C)(O)Cn1nnc2cc(-c3ccc(C(=O)N4C5CCC4C(N)C5)cc3-c3ccc(C#N)c(F)c3)c(F)c(Br)c21 [Example 273, 5′-((1S,2S,4R)-rel-2-amino-7-azabicyclo[2.2.1]heptane-7-carbonyl)-2′-(7-bromo-6-fluoro-1-(2-hydroxy-2-methylpropyl)-1H-benzo[d][1,2,3]triazol-5-yl)-3-fluoro-[1,1′-biphenyl]-4-carbonitrile-isomer-X] | 0.63 | 0.27 | –
CC(C)(O)Cn1ncc2cc(-c3ccc(CN4C5CCC4C(N)C5)cc3-c3ccc(C#N)c(F)c3)c(F)cc21 [Example 287, 5′-(((1S,2S,4R)-rel-2-amino-7-azabicyclo[2.2.1]heptan-7-yl)methyl)-3-fluoro-2′-(6-fluoro-1-(2-hydroxy-2-methylpropyl)-1H-indazol-5-yl)-[1,1′-biphenyl]-4-carbonitrile-isomer-X dihydrochloride] | 0.2 | – | 0.1
CC(C)(O)Cc1ccc(-c2ccc(CN3C4CCC3C(N)C4)cc2-c2ccc(C#N)c(F)c2)c(F)c1 [Example 290, 5′-(((1S,2S,4R)-rel-2-amino-7-azabicyclo[2.2.1]heptan-7-yl)methyl)-2″,3-difluoro-4″-(2-hydroxy-2-methylpropyl)-[1,1′:2′,1″-terphenyl]-4-carbonitrile-isomer-X dihydrochloride] | 2.12 | – | 1.06

Reference: patent US11479563B2, “Biphenyl compound or salt thereof” (TAIHO PHARMACEUTICAL CO., LTD., priority 2017, dated 2022)
